Measured values reported in US9499537B2, “Antiviral pyrrolopyridine derivatives and method for preparing the same” (KOREA RESEARCH INSTITUTE OF CHEMICAL TECHNOLOGY, priority 2011, dated 2016).

Test system: MT-4 cells
Assay: Cytotoxicity test in MT-4 cells (MTT method)
Type: cell-based
Details: human
Procedure: In order to look into the HIV-1 inhibition effects of the compound of the present invention, an in vitro test for HIV-1 inhibition effects was carried out as follows according to a known method (H. Tanaka et al., J. Med. Chem., 1991, 34, 349). MT-4 cells were used as host cells, and the degree of the compound of the present invention inhibiting the cytotoxicity of the virus-infected MT-4 cells was investigated.
First, MT-4 cells were diffused at a concentration of 1×10^4 cell/well to a culture medium, and HIV-1 was inoculated so that the concentration was 500 TCI50 (concentration at which 50% of the cell is infected)/well. Immediately after the inoculation, the cell dispersion was transferred in 100 μL each to a flat microtiter plate in which the sample of the compound of the present invention was placed. The sample was incubated for approximately for 4 to 5 days at […], and the virus suppression effect was determined using an MTT method. In addition, the cytotoxicity was also determined by measuring the survivability of the experimentally virus-infected cells using an MTT method. As a comparative compound, azidothymidine (AZT) and raltegravir were used.

SMILES | CC60 (μM) ** : concentration at 50% cell damage with respect to MT-4 cells [µM]
Cc1nc2c(c(C)c(C)n2CCC#N)c(-c2ccc(Cl)cc2)c1[C@H](OC(C)(C)C)C(=O)O [Example 30, (S)-2-Tert-butoxy-2-(4-(4-chlorophenyl)-1-(2-cyanoethyl)-2,3,6-trimethyl-1H-pyrrolo[2,3-b]pyridin-5-yl)acetic acid] | 30.86
Cc1nc2c(c(C)c(C)n2CCC#N)c(-c2ccc(Cl)cc2)c1[C@@H](OC(C)(C)C)C(=O)O [Example 31, (R)-2-tert-butoxy-2-(4-(4-chlorophenyl)-1-(2-cyanoethyl)-2,3,6-trimethyl-1H-pyrrolo[2,3-b]pyridin-5-yl)acetic acid] | 86.73
CCn1c(C)c(C)c2c(-c3ccc(Cl)cc3)c([C@H](OC(C)(C)C)C(=O)O)c(C)nc21 [Example 32, (S)-2-Tert-butoxy-2-(4-(4-chlorophenyl)-1-(ethyl)-2,3,6-trimethyl-1H-pyrrolo[2,3-b]pyridin-5-yl)acetic acid] | 23.48
CCn1c(C)c(C)c2c(-c3ccc(Cl)cc3)c([C@@H](OC(C)(C)C)C(=O)O)c(C)nc21 [Example 33, (R)-2-tert-butoxy-2-(4-(4-chlorophenyl)-1-(ethyl)-2,3,6-trimethyl-1H-pyrrolo[2,3-b]pyridin-5-yl)acetic acid] | 25.5
Cc1nc2c(ccn2C)c(-c2ccc(Cl)cc2)c1[C@H](OC(C)(C)C)C(=O)O [Example 34, (S)-2-Tert-butoxy-2-(4-(4-chlorophenyl)-1,6-dimethyl-1H-pyrrolo[2,3-b]pyridin-5-yl)acetic acid] | 78
COc1cc(Cn2c(C)c(C)c3c(-c4ccc(Cl)cc4)c(C(OC(C)(C)C)C(=O)O)c(C)nc32)cc(Cl)n1 (stereo not drawn) [Example 35, 2-Tert-butoxy-2-(4-(4-chlorophenyl)-1-((2-chloro-6-methoxypyridin-4-yl)methyl)-2,3,6-trimethyl-1H-pyrrolo[2,3-b]pyridin-5-yl)acetic acid] | 14.86
Cc1nc2c(c(C)c(C)n2Cc2ccncc2)c(-c2ccc(Cl)cc2)c1[C@H](OC(C)(C)C)C(=O)O [Example 36, (S)-2-Tert-butoxy-2-(4-(4-chlorophenyl)-1-(pyridin-4-ylmethyl)-2,3,6-trimethyl-1H-pyrrolo[2,3-b]pyridin-5-yl)acetic acid] | 24.49
CCn1c(C)c(C)c2c(-c3ccccc3)c(C(OC(C)(C)C)C(=O)O)c(C)nc21 (stereo not drawn) [Example 37, 2-Tert-butoxy-2-(1-ethyl-2,3,6-trimethyl-4-phenyl-1H-pyrrolo[2,3-b]pyridin-5-yl)acetic acid] | 17
CCn1c(C)c(C)c2c(-c3ccc(C)cc3)c(C(OC(C)(C)C)C(=O)O)c(C)nc21 (stereo not drawn) [Example 38, 2-Tert-butoxy-2-(1-ethyl-2,3,6-trimethyl-4-(para-tolyl)-1H-pyrrolo[2,3-b]pyridin-5-yl)acetic acid] | 40.34
CCn1c(C)c(C)c2c(-c3ccc(F)cc3)c(C(OC(C)(C)C)C(=O)O)c(C)nc21 (stereo not drawn) [Example 39, 2-Tert-butoxy-2-(1-ethyl-4-(4-fluorophenyl)-2,3,6-trimethyl-1H-pyrrolo[2,3-b]pyridin-5-yl)acetic acid] | 78.47
CCn1c(C)c(C)c2c(-c3ccc(C#N)cc3)c(C(OC(C)(C)C)C(=O)O)c(C)nc21 (stereo not drawn) [Example 40, 2-Tert-butoxy-2-(4-(4-cyanophenyl)-1-ethyl-2,3,6-trimethyl-1H-pyrrolo[2,3-b]pyridin-5-yl)acetic acid] | 91.58
CCn1c(C)c(C)c2c(-c3ccc(OC)cc3)c(C(OC(C)(C)C)C(=O)O)c(C)nc21 (stereo not drawn) [Example 41, 2-(Tert-butoxy)-2-(1-ethyl-4-(4-methoxyphenyl)-2,3,6-trimethyl-1H-pyrrolo[2,3-b]pyridin-5-yl)acetic acid] | 31.49
Cc1nc2c(c(C)c(C)n2Cc2cccs2)c(-c2ccc(Cl)cc2)c1[C@H](OC(C)(C)C)C(=O)O [Example 42, (S)-2-(Tert-butoxy)-2-(4-(4-chlorophenyl)-2,3,6-trimethyl-1-(thiophen-2-ylmethyl)-1H-pyrrolo[2,3-b]pyridin-5-yl)acetic acid] | 20.54
Cc1nc2c(c(C)c(C)n2Cc2ccsc2)c(-c2ccc(Cl)cc2)c1[C@H](OC(C)(C)C)C(=O)O [Example 43, (S)-2-(Tert-butoxy)-2-(4-(4-chlorophenyl)-2,3,6-trimethyl-1-(thiophen-3-ylmethyl)-1H-pyrrolo[2,3-b]pyridin-5-yl)acetic acid] | 17.74
Cc1nc2c(c(C)c(C)n2Cc2ccco2)c(-c2ccc(Cl)cc2)c1[C@H](OC(C)(C)C)C(=O)O [Example 44, (S)-2-(Tert-butoxy)-2-(4-(4-chlorophenyl)-1-(furan-2-ylmethyl)-2,3,6-trimethyl-1H-pyrrolo[2,3-b]pyridin-5-yl)acetic acid] | 18.06
Cc1nc2c(c(C)c(C)n2CC2(C#N)CC2)c(-c2ccc(Cl)cc2)c1[C@H](OC(C)(C)C)C(=O)O [Example 47, (S)-2-(tert-butoxy)-2-(4-(4-chlorophenyl)-1-((1-cyanocyclopropyl)methyl)-2,3,6-trimethyl-1H-pyrrolo[2,3-b]pyridin-5-yl)acetic acid] | 16.64
Cc1nc2c(c(C)c(C)n2CC2CCC2)c(-c2ccc(Cl)cc2)c1[C@H](OC(C)(C)C)C(=O)O [Example 48, (S)-2-(Tert-butoxy)-2-(4-(4-chlorophenyl)-1-(cyclobutylmethyl)-2,3,6-trimethyl-1H-pyrrolo[2,3-b]pyridin-5-yl)acetic acid] | 14.22
Cc1nc2c(c(C)c(C)n2CC2CCCC2)c(-c2ccc(Cl)cc2)c1[C@H](OC(C)(C)C)C(=O)O [Example 49, (S)-2-(Tert-butoxy)-2-(4-(4-chlorophenyl)-1-(cyclopentylmethyl)-2,3,6-trimethyl-1H-pyrrolo[2,3-b]pyridin-5-yl)acetic acid] | 15.3
Cc1nc2c(c(C)c(C)n2CC2CCCCC2)c(-c2ccc(Cl)cc2)c1[C@H](OC(C)(C)C)C(=O)O [Example 50, (S)-2-(Tert-butoxy)-2-(4-(4-chlorophenyl)-1-(cyclohexylmethyl)-2,3,6-trimethyl-1H-pyrrolo[2,3-b]pyridin-5-yl)acetic acid] | 10.32
Cc1nc2c(c(C)c(C)n2CC(=O)N(C)C)c(-c2ccc(Cl)cc2)c1[C@H](OC(C)(C)C)C(=O)O [Example 51, (S)-2-(Tert-butoxy)-2-(4-(4-chlorophenyl)-1-(2-(dimethylamino)-2-oxoethyl)-2,3,6-trimethyl-1H-pyrrolo[2,3-b]pyridin-5-yl)acetic acid] | 96.68
Cc1nc2c(c(C)c(C)n2CC2(O)CC2)c(-c2ccc(Cl)cc2)c1[C@H](OC(C)(C)C)C(=O)O [Example 52] | 34.33
Cc1nc2c(c(C)c(C)n2Cc2cccnc2)c(-c2ccc(Cl)cc2)c1[C@H](OC(C)(C)C)C(=O)O [Example 53, (S)-2-(Tert-butoxy)-2-(4-(4-chlorophenyl)-2,3,6-trimethyl-1-(pyridin-3-ylmethyl)-1H-pyrrolo[2,3-b]pyridin-5-yl)acetic acid] | 53.33
Cc1nc2c(c(C)c(C)n2CCF)c(-c2ccc(Cl)cc2)c1[C@H](OC(C)(C)C)C(=O)O [Example 54, (S)-2-(Tert-butoxy)-2-(4-(4-chlorophenyl)-1-(2-fluoroethyl)-2,3,6-trimethyl-1H-pyrrolo[2,3-b]pyridin-5-yl)acetic acid] | 18.82
Cc1nc2c(c(C)c(C)n2Cc2cncnc2)c(-c2ccc(Cl)cc2)c1[C@H](OC(C)(C)C)C(=O)O [Example 55, (S)-2-(Tert-butoxy)-2-(4-(4-chlorophenyl)-2,3,6-trimethyl-1-(pyrimidin-5-ylmethyl)-1H-pyrrolo[2,3-b]pyridin-5-yl)acetic acid] | 64.73
Cc1nc2c(c(C)c(C)n2Cc2cocn2)c(-c2ccc(Cl)cc2)c1[C@H](OC(C)(C)C)C(=O)O [Example 56, (S)-2-(Tert-butoxy)-2-(4-(4-chlorophenyl)-2,3,6-trimethyl-1-(oxazol-4-ylmethyl)-1H-pyrrolo[2,3-b]pyridin-5-yl)acetic acid] | 24.56
Cc1nc2c(c(C)c(C)n2CC(=O)O)c(-c2ccc(Cl)cc2)c1[C@H](OC(C)(C)C)C(=O)O [Example 57, (S)-2-(Tert-butoxy)-2-(1-carboxymethyl)-(4-(4-chlorophenyl)-2,3,6-trimethyl-1H-pyrrolo[2,3-b]pyridin-5-yl)acetic acid] | >217.9
Cc1nc2c(c(C)c(C)n2CC(F)(F)F)c(-c2ccc(Cl)cc2)c1[C@H](OC(C)(C)C)C(=O)O [Example 59, (S)-2-(Tert-butoxy)-2-(4-(4-chlorophenyl)-2,3,6-trimethyl-1-(2,2,2-trifluoromethyl)-1H-pyrrolo[2,3-b]pyridin-5-yl)acetic acid] | 5.3
